Reference: ChEMBL document CHEMBL5727270, “Macrocyclic immunomodulators” (2019)

molecular target: Programmed cell death 1 ligand 1 (Homo sapiens, UniProt Q9NZQ7); assay: Enzyme-Linked Immunosorbent Assay - ELISA: 96 Well plates were coated with 1 μg/mL of human PD-L1 (obtained from R&D) in PBS overnight at 4° C. The wells were then blocked with 2% BSA in PBS (W/V) with 0.05% TWEEN-20 for 1 hour at 37° C. The plates were washed 3 times with PBS/0.05% TWEEN-20 and the compounds were serial diluted (1:5) in dilution medium and added to the ELISA plates. Human PD-1 and biotin 0.3 μg/mL (ACRO Biosystems) were added and incubated for 1 hour at 37° C. then washed 3 times with PBS/0.05% TWEEN-20. A second block was performed with 2% BSA in PBS (W/V)/0.05% TWEEN-20 for 10 min at 37° C. and was washed 3 times with PBS/0.05% TWEEN-20. Streptavidin-HRP was added for 1 hour at 37° C. then washed 3 times with PBS/0.05% TWEEN-20. TMB substrate was added and reacted for 20 min at 37° C. A stop solution (2 N aqueous H2SO4) was added. The absorbance was read at 450 nm using a micro-plate spectrophotometer.
Sequence (Q9NZQ7 whole entry): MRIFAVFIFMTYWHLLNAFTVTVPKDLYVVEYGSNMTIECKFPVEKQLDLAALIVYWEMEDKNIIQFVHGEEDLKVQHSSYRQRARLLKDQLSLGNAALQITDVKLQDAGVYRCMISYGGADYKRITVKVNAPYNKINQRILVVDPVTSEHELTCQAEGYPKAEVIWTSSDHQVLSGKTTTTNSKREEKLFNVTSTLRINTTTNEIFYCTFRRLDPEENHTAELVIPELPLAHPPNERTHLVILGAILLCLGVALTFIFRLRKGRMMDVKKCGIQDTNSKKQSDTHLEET

Question: With `Cc1c(COc2cc3c(cc2Cl)CN[C@@H](C(=O)O)CCCCNC(=O)c2cncc(c2)CO3)cccc1-c1ccccc1` as the compound, how does the IC50 read?
Answer: The IC50 was < 100 nM.

Question: With `Cc1c(COc2cc3c(cc2Cl)CN[C@H](CO)CCCCNC(=O)c2cncc(c2)CO3)cccc1-c1cccc(OCCCN2CCC(O)CC2)c1C` as the compound, how does the IC50 read?
Answer: Its IC50 is < 100 nM.

Question: `Cc1c(COc2cc3c(cc2Cl)CN[C@H](C(=O)O)CCCCNC(=O)c2cncc(c2)CO3)cccc1-c1cccc(OCCCN2CC[C@@H](O)C2)c1C` was tested. Which IC50 did it give?
Answer: Its IC50 is < 100 nM.

Question: Which IC50 does the source give for `Cc1c(COc2cc3c(cc2Cl)CN[C@H](C(=O)O)CCCCCCNC(=O)c2cncc(c2)CO3)cccc1-c1cccc(OCCCN2CCC(O)CC2)c1C` here?
Answer: Its IC50 is < 100 nM.

Question: `Cc1c(COc2cc3c(cc2Cl)CN[C@H](C(=O)O)CCCCNC(=O)c2cc(C#N)cc(c2)CO3)cccc1-c1cccc(OCCCN2CC[C@@H](O)C2)c1C` was tested. Which IC50 did it give?
Answer: The IC50 was < 100 nM.

Question: Which IC50 does the source give for `Cc1c(COc2cc3c(cc2Cl)CN[C@H](C(=O)O)CCCCNC(=O)c2cc(C#N)cc(c2)CO3)cccc1-c1cccc(OCCCN2CCC(O)CC2)c1C` here?
Answer: The IC50 was < 100 nM.
